System: HT-1080 (ATCC, CCL-121) cells
Test: HT-1080 cell viability assay with ferroptosis inducer RSL3 (Cell Titer-Glo)
Format: cell-based
Settings: Homo sapiens; HT-1080 cells treated with RSL3; 3-fold, 10-point dilution, 1.1 μM highest concentration; Table 2; read-out: EC50 (nM), ferroptosis inhibitory activity
Outline: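 HT-1080 cells (6000 per well) were cultured overnight at 37 °C, then co-treated with RSL3 and compound in a 3-fold, 10-point series topping at 1.1 μM. Viability was read by CellTiter-Glo luminescence and normalized to untreated controls. EC50 came from a sigmoidal non-linear regression fit.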

Row | SMILES | EC50 [nM]
1 | Cc1cc(Nc2ccc3c(c2)OCC(=O)N3)ccc1N1CCC(C(F)(F)F)CC1 [Compound 101, 7-((3-methyl-4-(4-(trifluoromethyl)piperidin-1-yl)phenyl)amino)-2H-benzo[b][1,4]oxazin-3(4H)-one] | 100 to 1000
2 | CN1CCN(CC(=O)N2CCc3cc(Nc4ccc(N5CCCCC5)cc4)ccc3C2)CC1 [Compound 103, 2-(4-methylpiperazin-1-yl)-1-(6-((4-(piperidin-1-yl)phenyl)amino)-3,4-dihydroisoquinolin-2(1H)-yl)ethan-1-one] | 100 to 1000
3 | c1ccc(Nc2ccc3c(c2)CCNC3)cc1 [Compound 104, N-phenyl-1,2,3,4-tetrahydroisoquinolin-6-amine] | 0.1 to 100
4 | CCN1CCc2cc(Nc3ccccc3)ccc2C1 [Compound 105, 2-ethyl-N-phenyl-1,2,3,4-tetrahydroisoquinolin-6-amine] | 0.1 to 100
5 | Cc1cc(=O)oc2cc(Nc3ccc(C(C)(C)C)cc3)ccc12 [Compound 118, 7-((4-(tert-butyl)phenyl)amino)-4-methyl-2H-chromen-2-one] | 0.1 to 100
6 | Cc1cc(=O)oc2cc(Nc3ccc(N4CCC(C(F)(F)F)CC4)cc3)ccc12 [Compound 119, 4-methyl-7-((4-(4-(trifluoromethyl)piperidin-1-yl)phenyl)amino)-2H-chromen-2-one] | 0.1 to 100
7 | CC(C)(C)c1ccc(Nc2ccc3oc(=O)ccc3c2)cc1 [Compound 120, 6-((4-(tert-butyl)phenyl)amino)-2H-chromen-2-one] | 0.1 to 100
8 | CC(C)(C)c1ccc(Nc2ccc3c(CCN)cc(=O)oc3c2)cc1 [Compound 121, 4-(2-aminoethyl)-7-((4-(tert-butyl)phenyl)amino)-2H-chromen-2-one] | 0.1 to 100
9 | NCCc1cc(=O)oc2cc(Nc3ccc(N4CCC(C(F)(F)F)CC4)cc3)ccc12 [Compound 122, 4-(2-aminoethyl)-7-((4-(4-(trifluoromethyl)piperidin-1-yl)phenyl)amino)-2H-chromen-2-one] | 0.1 to 100
10 | O=c1ccc2cc(Nc3ccc(N4CCC(C(F)(F)F)CC4)cc3)ccc2o1 [Compound 123, 6-((4-(4-(trifluoromethyl)piperidin-1-yl)phenyl)amino)-2H-chromen-2-one] | 0.1 to 100
11 | CC(C)(C)c1ccc(Nc2ccc3cc(CCN)c(=O)oc3c2)cc1 [Compound 124, 3-(2-aminoethyl)-7-((4-(tert-butyl)phenyl)amino)-2H-chromen-2-one] | 0.1 to 100
12 | NCCc1cc2ccc(Nc3ccc(N4CCC(C(F)(F)F)CC4)cc3)cc2oc1=O [Compound 125, 3-(2-aminoethyl)-7-((4-(4-(trifluoromethyl)piperidin-1-yl)phenyl)amino)-2H-chromen-2-one] | 0.1 to 100
13 | Cc1cc2c(C)cc(=O)oc2cc1Nc1ccc(N2CCC(C(F)(F)F)CC2)cc1 [Compound 126, 4,6-dimethyl-7-((4-(4-(trifluoromethyl)piperidin-1-yl)phenyl)amino)-2H-chromen-2-one] | 0.1 to 100
14 | CN1C(=O)CCc2cc(Nc3ccc(N4CCC(C(F)(F)F)CC4)cc3)ccc21 [Compound 127, 1-methyl-6-((4-(4-(trifluoromethyl)piperidin-1-yl)phenyl)amino)-3,4-dihydroquinolin-2(1H)-one] | 0.1 to 100
15 | CN1C(=O)OCc2cc(Nc3ccc(N4CCC(C(F)(F)F)CC4)cc3)ccc21 [Compound 128, 1-methyl-6-((4-(4-(trifluoromethyl)piperidin-1-yl)phenyl)amino)-1,4-dihydro-2H-benzo[d][1,3]oxazin-2-one] | 0.1 to 100
16 | COC1(C(F)(F)F)CCN(c2ccc(Nc3ccc4c(c3)OCC(=O)N4C)c(C)c2)CC1 [Compound 129, 7-((4-(4-methoxy-4-(trifluoromethyl)piperidin-1-yl)-2-methylphenyl)amino)-4-methyl-2H-benzo[b][1,4]oxazin-3(4H)-one] | 0.1 to 100
17 | Cc1cc(N2CCC(O)(C(F)(F)F)CC2)ccc1Nc1ccc2c(c1)OCC(=O)N2C [Compound 130, 7-((4-(4-hydroxy-4-(trifluoromethyl)piperidin-1-yl)-2-methylphenyl)amino)-4-methyl-2H-benzo[b][1,4]oxazin-3(4H)-one] | 0.1 to 100
18 | COc1cc(Nc2ccc3c(c2)OCC(=O)N3)cnc1N1CCC(C(F)(F)F)CC1 [Compound 131, 7-((5-methoxy-6-(4-(trifluoromethyl)piperidin-1-yl)pyridin-3-yl)amino)-2H-benzo[b][1,4]oxazin-3(4H)-one] | 0.1 to 100
19 | Cc1cc(Nc2cc(F)c3c(c2)OCC(=O)N3C)ccc1N1CC(C)OC(C)C1 (stereo not shown) [Compound 132, 7-((4-(2,6-dimethylmorpholino)-3-methylphenyl)amino)-5-fluoro-4-methyl-2H-benzo[b][1,4]oxazin-3(4H)-one] | 0.1 to 100
20 | CC1CN(c2ccc(Nc3ccc4nnn(C)c4c3)cc2)CC(C)O1 (stereo not shown) [Compound 133, N-(4-(2,6-dimethylmorpholino)phenyl)-1-methyl-1H-benzo[d][1,2,3]triazol-6-amine] | 100 to 1000
21 | CN(CC(F)(F)F)c1ccc(Nc2ccc3c(c2)OCC(=O)N3C)cc1 [Compound 134] | 0.1 to 100
22 | CC(C)(C)c1ccc(Nc2ccc3c(c2)OCC(=O)N3)cc1 [Compound 135, 7-((4-(tert-butyl)phenyl)amino)-2H-benzo[b][1,4]oxazin-3(4H)-one] | 0.1 to 100
23 | O=C1COc2cc(Nc3cc(F)c(N4CCC(C(F)(F)F)CC4)c(F)c3)ccc2N1 [Compound 136, 7-((3,5-difluoro-4-(4-(trifluoromethyl)piperidin-1-yl)phenyl)amino)-2H-benzo[b][1,4]oxazin-3(4H)-one] | 0.1 to 100
24 | CN1C(=O)NCc2cc(Nc3ccc(N4CCC(C(F)(F)F)CC4)cc3)ccc21 [Compound 137, 1-methyl-6-((4-(4-(trifluoromethyl)piperidin-1-yl)phenyl)amino)-3,4-dihydroquinazolin-2(1H)-one] | 0.1 to 100
25 | Cc1cc(Nc2ccc3c(c2)OCC(=O)N3)ccc1N1CC(C)OC(C)C1 (stereo not shown) [Compound 138, 7-((4-(2,6-dimethylmorpholino)-3-methylphenyl)amino)-2H-benzo[b][1,4]oxazin-3(4H)-one] | 0.1 to 100
26 | CC1CN(c2ccc(Nc3ccc4c(c3)OC(C)C(=O)N4)cc2)CC(C)O1 (stereo not shown) [Compound 139, 7-((4-(2,6-dimethylmorpholino)phenyl)amino)-2-methyl-2H-benzo[b][1,4]oxazin-3(4H)-one] | 0.1 to 100

Continued, values first:

Row | EC50 [nM] | SMILES
27 | 0.1 to 100 | Cc1cc(N2CCC(C(F)(F)F)CC2)ccc1Nc1ccc2c(c1)OCC(=O)N2 [Compound 100, 7-((2-methyl-4-(4-(trifluoromethyl)piperidin-1-yl)phenyl)amino)-2H-benzo[b][1,4]oxazin-3(4H)-one]
28 | 0.1 to 100 | CC1CCN(c2ccc(Nc3ccc4c(c3)N(C)CC(=O)N4C)cc2)CC1 [Compound 102, 1,4-dimethyl-6-((4-(4-methylpiperidin-1-yl)phenyl)amino)-3,4-dihydroquinoxalin-2(1H)-one]
29 | 0.1 to 100 | CC(=O)N1CCc2cc(Nc3ccccc3)ccc2C1 [Compound 106, 1-(6-(phenylamino)-3,4-dihydroisoquinolin-2(1H)-yl)ethan-1-one]
30 | 0.1 to 100 | CN1CCN(CC(=O)N2CCc3cc(Nc4ccccc4)ccc3C2)CC1 [Compound 107, 2-(4-methylpiperazin-1-yl)-1-(6-(phenylamino)-3,4-dihydroisoquinolin-2(1H)-yl)ethan-1-one]
31 | 0.1 to 100 | CN1CCN(CC(=O)N2CCc3cc(Nc4ccc(N5CCC(C(F)(F)F)CC5)c(F)c4)ccc3C2)CC1 [Compound 108, 1-(6-((3-fluoro-4-(4-(trifluoromethyl)piperidin-1-yl)phenyl)amino)-3,4-dihydroisoquinolin-2(1H)-yl)-2-(4-methylpiperazin-1-yl)ethan-1-one]
32 | 0.1 to 100 | CN1CC(=O)N(C)c2ccc(Nc3ccc(N4CCC(C(F)(F)F)CC4)cc3)cc21 [Compound 109, 1,4-dimethyl-6-((4-(4-(trifluoromethyl)piperidin-1-yl)phenyl)amino)-3,4-dihydroquinoxalin-2(H)-one]
33 | 0.1 to 100 | Cn1c(=O)c(=O)n(C)c2cc(Nc3ccc(N4CCC(C(F)(F)F)CC4)cc3)ccc21 [Compound 110, 1,4-dimethyl-6-((4-(4-(trifluoromethyl)piperidin-1-yl)phenyl)amino)-1,4-dihydroquinoxaline-2,3-dione]
34 | 0.1 to 100 | Cn1c(=O)cnc2cc(Nc3ccc(N4CCC(C(F)(F)F)CC4)cc3)ccc21 [Compound 111, 1-methyl-6-((4-(4-(trifluoromethyl)piperidin-1-yl)phenyl)amino) quinoxalin-2(1H)-one]
35 | 0.1 to 100 | CN1Cc2cc(Nc3ccc(N4CCC(C(F)(F)F)CC4)cc3)ccc2N(C)C1=O [Compound 112, 1,3-dimethyl-6-((4-(4-(trifluoromethyl)piperidin-1-yl)phenyl)amino)-3,4-dihydroquinazolin-2(1H)-one]
36 | 0.1 to 100 | Cc1nc(=O)n(C)c2ccc(Nc3ccc(N4CCC(C(F)(F)F)CC4)cc3)cc12 [Compound 113, 1,4-dimethyl-6-((4-(4-(trifluoromethyl)piperidin-1-yl)phenyl)amino) quinazolin-2(1H)-one]
37 | 0.1 to 100 | CN1CCOc2cc(Nc3ccc(N4CCC(C(F)(F)F)CC4)cc3)ccc21 [Compound 114, 4-methyl-N-(4-(4-(trifluoromethyl)piperidin-1-yl)phenyl)-3,4-dihydro-2H-benzo[b][1,4]oxazin-7-amine]
38 | 0.1 to 100 | CC1CCN(c2ccc(Nc3ccc4c(c3)ncc(=O)n4C)cc2)CC1 [Compound 115, 1-methyl-6-((4-(4-methylpiperidin-1-yl)phenyl)amino)quinoxalin-2(1H)-one]
39 | 0.1 to 100 | CCn1c(=O)cnc2cc(Nc3ccc(N4CCC(C(F)(F)F)CC4)cc3)ccc21 [Compound 116, 1-ethyl-6-((4-(4-(trifluoromethyl)piperidin-1-yl)phenyl)amino) quinoxalin-2(1H)-one]
40 | 0.1 to 100 | CCn1c(=O)cnc2cc(Nc3ccc(N4CCC(C)CC4)cc3)ccc21 [Compound 117]

Reference: patent US20240327393A1 (SIRONAX LTD., priority 2021, published 2024)
